Where “and” joins values, the source holds several entries; their conditions need not be identical. Identical values can stand only once.
Experiments:
D(2) dopamine receptor [1] = biological target: D(2) dopamine receptor (Oryctolagus cuniculus, UniProt G1T1Q0)
D(2) dopamine receptor [2] = biological target: D(2) dopamine receptor (Rattus norvegicus, UniProt P61169)
Sequence of D(2) dopamine receptor (Rattus norvegicus, UniProt P61169) (P61169 whole entry): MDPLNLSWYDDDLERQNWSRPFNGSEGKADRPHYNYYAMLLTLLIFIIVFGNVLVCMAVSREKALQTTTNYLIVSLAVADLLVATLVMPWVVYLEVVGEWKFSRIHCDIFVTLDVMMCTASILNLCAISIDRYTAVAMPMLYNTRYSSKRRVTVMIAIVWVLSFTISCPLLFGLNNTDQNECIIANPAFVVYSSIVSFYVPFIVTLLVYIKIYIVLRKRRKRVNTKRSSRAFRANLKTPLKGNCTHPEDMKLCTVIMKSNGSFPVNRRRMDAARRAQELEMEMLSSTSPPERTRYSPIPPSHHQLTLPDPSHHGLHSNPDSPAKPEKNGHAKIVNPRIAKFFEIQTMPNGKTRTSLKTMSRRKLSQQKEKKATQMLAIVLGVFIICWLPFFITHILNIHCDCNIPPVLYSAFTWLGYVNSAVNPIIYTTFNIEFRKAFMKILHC

Sequence of D(2) dopamine receptor (Oryctolagus cuniculus, UniProt G1T1Q0) (G1T1Q0 whole entry): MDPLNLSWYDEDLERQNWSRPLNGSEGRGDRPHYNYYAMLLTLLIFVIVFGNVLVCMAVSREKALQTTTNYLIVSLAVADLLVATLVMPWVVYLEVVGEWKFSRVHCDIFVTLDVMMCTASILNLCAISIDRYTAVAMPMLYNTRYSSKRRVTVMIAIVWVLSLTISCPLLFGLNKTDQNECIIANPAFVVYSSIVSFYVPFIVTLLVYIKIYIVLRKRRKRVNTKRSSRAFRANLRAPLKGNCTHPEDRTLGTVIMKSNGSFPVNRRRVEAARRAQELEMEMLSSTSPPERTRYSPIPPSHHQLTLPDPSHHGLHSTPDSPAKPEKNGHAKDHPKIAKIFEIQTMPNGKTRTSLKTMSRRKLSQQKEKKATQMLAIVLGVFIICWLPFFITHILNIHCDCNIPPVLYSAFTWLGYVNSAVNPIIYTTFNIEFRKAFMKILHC

Row | SMILES | Ki (D(2) dopamine receptor [1]) | Ki (D(2) dopamine receptor [2])
1 | CCCN(CCC)CCc1ccc(O)c(O)c1 | 37 nM and 85 nM | 130 nM
2 | O=c1[nH]c2ccccc2n1CCCN1CCC(n2c(=O)[nH]c3cc(Cl)ccc32)CC1 | 3.3 nM and 4.9 nM | 
3 | NCCc1ccc(O)c(O)c1 | 250 nM and 200 nM | 
4 | O=C(c1ccc(F)cc1)C1CCN(CCn2c(=O)[nH]c3ccccc3c2=O)CC1 [3-(2-{4-[(4-fluorophenyl)carbonyl]piperidin-1-yl}ethyl)-1,2,3,4-tetrahydroquinazoline-2,4-dione] | 880 nM | 720 nM and 580 nM
5 | Nc1nc2c(ncn2[C@@H]2O[C@H](COP(=O)(O)OP(=O)(O)OP(=O)(O)O)[C@@H](O)[C@H]2O)c(=O)[nH]1 [Dopamine+ (GTP+)] |  | 1300 nM and 2900 nM
6 | Cc1ccc(N(CC2=NCCN2)c2cccc(O)c2)cc1 [SMR000059054] | 1200 nM | 1500 nM and 750 nM
